Where “and” joins values, the source holds several entries; their conditions need not be identical. Equal values may be shown once.
Organism: Rattus norvegicus
Assay: DrugMatrix - Regimen: Daily Repeat
Type: toxicity, organism-based, Sprague-Dawley
Set-up: regimen Daily Repeat, gender Male, age 6-8 weeks
Settings: in vivo, po, 0 mg/kg, route oral GAVAGE, dose level Control, vehicle 100 % SALINE; for ABSOLUTE BASOPHIL / ABSOLUTE LYMPHOCYTE / ABSOLUTE SEGMENTED NEUTROPHIL / BASOPHIL / EOSINOPHIL / ERYTHROCYTE COUNT / HEMATOCRIT / HEMOGLOBIN / LEUKOCYTE COUNT / LYMPHOCYTE / MEAN CORPUSCULAR HEMOGLOBIN / MEAN CORPUSCULAR HEMOGLOBIN CONCENTRATION / MONOCYTE / NEUTROPHIL / NUCLEATED RED BLOOD CELLS / PLATELET COUNT / ABSOLUTE EOSINOPHIL / ABSOLUTE MONOCYTE: tissue Blood
[1] = 72 h, tissue Plasma, time 3 day
[2] = 120 h, tissue Plasma, time 5 day

CN(C)C=O [DIMETHYLFORMAMIDE]
ABSOLUTE BASOPHIL (72 h, time 3 day): 0 CELLS/uL
ABSOLUTE LYMPHOCYTE (72 h, time 3 day): 8960.83 CELLS/uL and 11922.83 CELLS/uL
ABSOLUTE SEGMENTED NEUTROPHIL (72 h, time 3 day): 635.67 CELLS/uL and 1526.33 CELLS/uL
BASOPHIL (72 h, time 3 day): 0%
EOSINOPHIL (72 h, time 3 day): 0% and 0.5%
ERYTHROCYTE COUNT (72 h, time 3 day): 5.09 x10E6/uL and 5.62 x10E6/uL
HEMATOCRIT (72 h, time 3 day): 31.8% and 37.17%
HEMOGLOBIN (72 h, time 3 day): 12.42 G/DL and 13.53 G/DL
LEUKOCYTE COUNT (72 h, time 3 day): 9.7 x10E3/uL and 13.92 x10E3/uL
LYMPHOCYTE (72 h, time 3 day): 92.33% and 86.17%
MEAN CORPUSCULAR HEMOGLOBIN (72 h, time 3 day): 24.4 pg and 24.07 pg
MEAN CORPUSCULAR HEMOGLOBIN CONCENTRATION (72 h, time 3 day): 39.07 G/DL and 36.42 G/DL
MONOCYTE (72 h, time 3 day): 1% and 3%
NEUTROPHIL (72 h, time 3 day): 6.67% and 10.33%
NUCLEATED RED BLOOD CELLS (72 h, time 3 day): 0 /100WBC
PLATELET COUNT (72 h, time 3 day): 466.5 x10E3/uL and 1107 x10E3/uL
ALANINE AMINOTRANSFERASE [1]: 83.33 u/L and 45.33 u/L
ALBUMIN [1]: 4.33 G/DL and 4.3 G/DL
ALKALINE PHOSPHATASE [1]: 340.5 u/L and 321.33 u/L
ASPARTATE AMINOTRANSFERASE [1]: 189.83 u/L and 77.33 u/L
BLOOD UREA NITROGEN [1]: 15.83 mg/dL and 14.33 mg/dL
CARBON DIOXIDE [1]: 38 mmol/L and 32.33 mmol/L
CHLORIDE [1]: 96.83 MEQ/L and 99.67 MEQ/L
CHOLESTEROL [1]: 72.5 mg/dL and 82.33 mg/dL
CREATINE PHOSPHOKINASE [1]: 370.67 u/L and 205.5 u/L
CREATININE [1]: 0.28 mg/dL and 0.19 mg/dL
GLUCOSE [1]: 182.83 mg/dL and 150.83 mg/dL
LIPASE [1]: 9.83 u/L and 10.83 u/L
PHOSPHORUS [1]: 11.32 mg/dL and 10.9 mg/dL
SODIUM [1]: 145.12 MEQ/L and 145.15 MEQ/L
TOTAL BILIRUBIN [1]: 0.2 mg/dL and 0.12 mg/dL
TOTAL PROTEIN [1]: 6.4 G/DL and 6.22 G/DL
ABSOLUTE BASOPHIL (120 h, time 5 day): 0 CELLS/uL
ABSOLUTE EOSINOPHIL (120 h, time 5 day): 43.83 CELLS/uL
ABSOLUTE LYMPHOCYTE (120 h, time 5 day): 7316.67 CELLS/uL
ABSOLUTE MONOCYTE (120 h, time 5 day): 87.33 CELLS/uL
ABSOLUTE SEGMENTED NEUTROPHIL (120 h, time 5 day): 418.83 CELLS/uL
BASOPHIL (120 h, time 5 day): 0%
EOSINOPHIL (120 h, time 5 day): 0.33%
ERYTHROCYTE COUNT (120 h, time 5 day): 4.77 x10E6/uL
HEMATOCRIT (120 h, time 5 day): 29.93%
HEMOGLOBIN (120 h, time 5 day): 11.48 G/DL
LEUKOCYTE COUNT (120 h, time 5 day): 7.87 x10E3/uL
LYMPHOCYTE (120 h, time 5 day): 93.5%
MEAN CORPUSCULAR HEMOGLOBIN (120 h, time 5 day): 24.17 pg
MEAN CORPUSCULAR HEMOGLOBIN CONCENTRATION (120 h, time 5 day): 38.57 G/DL
MONOCYTE (120 h, time 5 day): 1%
NEUTROPHIL (120 h, time 5 day): 5.17%
NUCLEATED RED BLOOD CELLS (120 h, time 5 day): 0 /100WBC
PLATELET COUNT (120 h, time 5 day): 377.67 x10E3/uL
ALANINE AMINOTRANSFERASE [2]: 89 u/L
ALBUMIN [2]: 4.42 G/DL
ALKALINE PHOSPHATASE [2]: 275.17 u/L
ASPARTATE AMINOTRANSFERASE [2]: 204.17 u/L
BLOOD UREA NITROGEN [2]: 15.33 mg/dL
CARBON DIOXIDE [2]: 36.83 mmol/L
CHLORIDE [2]: 94.67 MEQ/L
CHOLESTEROL [2]: 92 mg/dL
CREATINE PHOSPHOKINASE [2]: 514.5 u/L
CREATININE [2]: 0.24 mg/dL
GLUCOSE [2]: 184.17 mg/dL
LACTATE DEHYDROGENASE [2]: 648.67 u/L
LIPASE [2]: 10 u/L
PHOSPHORUS [2]: 12.33 mg/dL
SODIUM [2]: 144.63 MEQ/L
TOTAL BILIRUBIN [2]: 0.18 mg/dL
TOTAL PROTEIN [2]: 6.7 G/DL
ABSOLUTE BASOPHIL ([…], time 7 day): 0 CELLS/uL
ABSOLUTE EOSINOPHIL ([…], time 7 day): 22 CELLS/uL
ABSOLUTE LYMPHOCYTE ([…], time 7 day): 11105.17 CELLS/uL
ABSOLUTE MONOCYTE ([…], time 7 day): 258.17 CELLS/uL
ABSOLUTE SEGMENTED NEUTROPHIL ([…], time 7 day): 881.33 CELLS/uL
BASOPHIL ([…], time 7 day): 0%
EOSINOPHIL ([…], time 7 day): 0.17%
ERYTHROCYTE COUNT ([…], time 7 day): 5.29 x10E6/uL
HEMATOCRIT ([…], time 7 day): 34.03%
HEMOGLOBIN ([…], time 7 day): 13.67 G/DL
LEUKOCYTE COUNT ([…], time 7 day): 12.27 x10E3/uL
LYMPHOCYTE ([…], time 7 day): 90.83%
MEAN CORPUSCULAR HEMOGLOBIN ([…], time 7 day): 25.9 pg
MEAN CORPUSCULAR HEMOGLOBIN CONCENTRATION ([…], time 7 day): 40.18 G/DL
MONOCYTE ([…], time 7 day): 2.17%
NEUTROPHIL ([…], time 7 day): 6.83%
NUCLEATED RED BLOOD CELLS ([…], time 7 day): 0 /100WBC
PLATELET COUNT ([…], time 7 day): 1159.83 x10E3/uL
ALANINE AMINOTRANSFERASE ([…], tissue Plasma, time 7 day): 45.83 u/L
ALBUMIN ([…], tissue Plasma, time 7 day): 4.1 G/DL
ALKALINE PHOSPHATASE ([…], tissue Plasma, time 7 day): 240 u/L
ASPARTATE AMINOTRANSFERASE ([…], tissue Plasma, time 7 day): 88.67 u/L
BLOOD UREA NITROGEN ([…], tissue Plasma, time 7 day): 13.67 mg/dL
CARBON DIOXIDE ([…], tissue Plasma, time 7 day): 31.83 mmol/L
CHLORIDE ([…], tissue Plasma, time 7 day): 96.83 MEQ/L
CHOLESTEROL ([…], tissue Plasma, time 7 day): 71.17 mg/dL
CREATINE PHOSPHOKINASE ([…], tissue Plasma, time 7 day): 202.5 u/L
CREATININE ([…], tissue Plasma, time 7 day): 0.22 mg/dL

Source: ChEMBL document CHEMBL3885881, “DrugMatrix”
